Results as given in US20190224164A1, “COMPOSITIONS AND METHODS FOR TREATMENT OF COPD” (Bodor Laboratories, Inc., priority 2016, published 2019).

System: acetylcholine-induced bronchoconstriction
Assay: Acetylcholine induced bronchoconstriction in anesthetized guinea pigs
Assay type: in vivo, guinea pig
Procedure: Male Hartley guinea pigs (320±120 g) (Charles River) are housed under standard conditions. Guinea pigs are anesthetized with urethane (2 g/kg, intraperitoneally), the trachea are cannulated and the animal is respired using a small animal respiratory pump (Harvard Apparatus LTD, Kent UK). Respiratory back pressure is measured and recorded using a rodent lung function recording system (MUMED, London UK). For drug administration the right jugular vein is cannulated. Following the surgical procedure, guinea pigs are allowed to stabilize for 20 minutes. Ten minutes before acetylcholine administration, the animals are disconnected from the ventilator and either the vehicle (10 mg lactose) or different amounts of the drug (suspended in the same amount of vehicle) are administered intratracheally. The trachea is reconnected to the ventilator and changes in pulmonary mechanics are followed. Acetylcholine (10 μg/kg) is administered intravenously in every 10 minutes six times. Male Hartley guinea pigs (320±120 g) (Charles River) are housed under standard conditions. Guinea pigs are anesthetized with urethane (2 g/kg, intraperitoneally), the trachea are cannulated and the animal is respired using a small animal respiratory pump (Harvard Apparatus LTD, Kent UK). Respiratory back pressure is measured and recorded using a rodent lung function recording system (MUMED, London UK). […]

C[N+]1(C)CCC(OC(=O)C(O)(c2ccccc2)C2CCCC2)C1 (centres unmarked) [glycopyrrolate]
protective effect on the acetylcholine-induced bronchoconstriction (drug intratracheally ten minutes before acetylcholine (10 μg/kg i.v.)): protective effect
protective effect on the acetylcholine-induced bronchoconstriction (ester and zwitterion or their combination products intratracheally, acetylcholine 10 μg/kg i.v.): protective effect
